Columns and labels:
Assay type in all cases: physicochemical
[1] = dissolution of ICG in chloroform with lipids without a positively charged region; conditions: lipid without positively charged region used instead of DOPE
Text: Instead of DOPE of Example 1, lipids (chemical formula 8, tristearin; chemical formula 9, triolein; chemical formula 10, ethyl stearate; chemical formula 11, β-carotene; and chemical formula 12, cholesterol acetate) without a positively charged region represented by the following chemical formulas 8 to 12 were used to prepare an ICG composition in the same manner as in Example 1. However, ICG was not dissolved in chloroform in any case, and a target polymer nanoparticle containing ICG could not be obtained.

[2] = solubility of ICG in dichloromethane when phospholipid was added; conditions: phospholipid not added; inferred from absorption curve integral values
Protocol: 2 molar equivalents of a phospholipid was added to 5.5 mg of ICG. As the phospholipid, DSPC or DOPE was used. Each of these ICG-phospholipid mixtures was dissolved in 2 mL of dichloromethane. Controls were prepared by dissolving in ICG in methanol or dichloromethane. All these ICG solutions were filtered with a filter having a pore size of 0.2 μm and then diluted 500-fold with dichloromethane.

[3] = stability of aqueous dispersion: absorbance at λmax over time at 4° C. in a dark place; conditions: at 48 hours; ICG dissolved in water
Protocol: To evaluate the stability of polymer nanoparticles, aqueous dispersions of PNP1 and PNP2 were allowed to stand at 4° C. in a dark place, and changes in the absorbance at λmax were measured over time. The results are illustrated in FIGS. 5 and 6. As a comparative example, changes with time in the absorbance at λmax of NPL 1 and in an ICG solution are illustrated in FIG. 5.
Changes in the absorbance of the aqueous dispersions of PNP4 to PNP6 at λmax were measured over time in the same manner as in Example 9. The results are illustrated in FIGS. 7 and 8. As a comparative example, changes with time in the absorbance at λmax of NPL 1 and in an ICG solution are illustrated in FIG. 7.
The PNP10 prepared in Example 13 was diluted with water, and the absorbance was measured over time with an absorption spectrometer (Perkin Elmer). The dispersion was shielded from a light except when measurement was performed and stored at 4° C. The measurement results are illustrated in FIG. 9.

| Compound | dissolution of ICG in chloroform [1] | ICG dissolved in dichloromethane [2] | absorbance change rate at λmax [3] [%] |
| --- | --- | --- | --- |
| CCCCCCCC/C=C\CCCCCCCC(=O)OCC(COC(=O)CCCCCCC/C=C\CCCCCCCC)OC(=O)CCCCCCC/C=C\CCCCCCCC [triolein] | not dissolved | – | – |
| CCCCCCCCCCCCCCCCCC(=O)OCC(COC(=O)CCCCCCCCCCCCCCCCC)OC(=O)CCCCCCCCCCCCCCCCC [tristearin] | not dissolved | – | – |
| CCCCCCCCCCCCCCCCCC(=O)OCC [ethyl stearate] | not dissolved | – | – |
| indocyanine green [ICG] | – | approximately 0.6 mM | 70 |
| CC(=O)O[C@H]1CC[C@@]2(C)C(=CC[C@H]3[C@@H]4CC[C@H]([C@H](C)CCCC(C)C)[C@@]4(C)CC[C@@H]32)C1 [cholesterol acetate] | not dissolved | – | – |

Reference: patent publication US9610367B2, “Particle and contrast agent having the particle” (CANON KABUSHIKI KAISHA, priority 2010, dated 2017)
